Data as given in PubChem BioAssay (NCI).
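Dose response: 5 concentrations. Exposure: 48 h. Format: 96-well plates. Endpoint: linear interpolation; highest concentration if not reached. The concentration for 50% growth inhibition is given as GI50. TGI: total growth inhibition.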

Columns and labels:
Assay in all cases: DTP human tumour cell line panel, 48 h
[1] = test system: SF-268 CNS
[2] = test system: T-47D breast
[3] = test system: NCI-H226 lung
[4] = test system: MDA-MB-231 breast
[5] = test system: MDA-MB-435
[6] = test system: SNB-78 CNS
[7] = test system: DLD-1 colon
[8] = test system: LXFL 529 NSCLC
[9] = test system: DMS 273 small cell lung

| Structure (SMILES) | GI50 [1] [µM] | TGI [1] [µM] | GI50 [2] [µM] | TGI [2] [µM] | GI50 [3] [µM] | TGI [3] [µM] | GI50 [4] [µM] | TGI [4] [µM] | GI50 [5] [µM] | TGI [5] [µM] | TGI [6] [µM] | TGI [7] [µM] | TGI [8] [µM] | TGI [9] [µM] |
| --- | --- | --- | --- | --- | --- | --- | --- | --- | --- | --- | --- | --- | --- | --- |
| Nc1c(C(=O)Nc2ccccn2)sc2nc3c(cc12)C(=O)CCC3 | 8.26 | > 100 | 4.89 | > 100 | 3.62 | > 100 | 4.54 | > 100 |  |  |  |  |  |  |
| Cc1nc2c(Br)cc(Br)cc2c(=O)n1-c1nnc(-c2cccc(Cl)c2Cl)c(N)n1 | 45.5 | > 100 | 55.2 | > 100 | 21.3 | 59.6 | 13.9 | 49.5 | 3.8 | 14.3 |  |  |  |  |
| N#CC(I)CS(=O)(=O)c1ccccc1 (configuration not stated) | 18.8 | 35.2 | 18.4 | 42.6 | 17.9 | 37.8 | 17.3 | 33.9 | 17.6 | 34.5 |  |  |  |  |
| COc1ccc(Cl)cc1NC(=O)c1ccc(NC2=C(Cl)C(=O)N(Cc3ccccc3)C2=O)cc1 | 25.3 | > 100 | > 100 | > 100 | > 100 | > 100 | 26.2 | > 100 | 99.7 | > 100 |  |  |  |  |
| Cc1nc2sccn2c1-c1nc2sccn2c1/C=C1/C(=O)Nc2ccccc21 | 6.18 | 33.1 | 3.47 | 63.6 | 9.79 | > 100 | 4.85 | 23.9 | 0.53 | 2.52 |  |  |  |  |
| Cc1cccc(NC2=C(Cl)C(=O)c3nc(C)ccc3C2=O)c1 | 2.1 | 6.4 | 1.65 | 4.29 | 1.1 | 2.78 | 0.904 | 2.42 | 0.218 | 0.469 |  |  |  |  |
| CN(C)CCNC(=O)Cc1ccccc1Nc1c(Cl)cccc1Cl |  | 36.2 |  |  |  | 34.3 |  |  |  |  | 38.7 | 27.3 | 32.5 | 30.5 |
| COc1cc2c(cc1OCCCN1CCN(CCCOc3cc4c(cc3OC)C(=O)N3CC(F)(F)C[C@H]3C=N4)CC1)N=C[C@@H]1CC(F)(F)CN1C2=O | 3.57 | 14.5 | 3.25 | 36.9 | 14 | 39.8 | 4.29 | 17.6 | 2.94 | 11.1 |  |  |  |  |
| CCCCCCCCSC1=C(Cl)C(=O)C(OC)=C(OC)C1=O |  | 28.7 |  | 36.2 |  | 34.6 |  | 29 |  | 35.4 |  |  |  |  |
| COC(=O)C1=CN(CC2=CC(=O)C(C)=CC2=O)C=C(C(=O)OC)C1c1ccccc1OC | 18.7 | 58.6 | 52.8 | > 100 | 16.4 | 41.5 | 9.66 | 28 | 21.8 | > 53.7 |  |  |  |  |
| C[N+](C)(C)CC(=O)N/N=C(/Cc1cc(=O)oc2cc(O)ccc12)C(=O)Nc1ccc(Cl)cc1 |  | > 100 |  |  |  |  |  |  |  |  |  | > 100 |  |  |
| COC(=O)c1c2c(c(C)[n+]([O-])c1C)C(=O)C(NCc1ccc(Br)cc1)=CC2=O | 2.21 | 7.12 | 1.52 | 4.06 |  |  | 1.41 | 5.51 | 1.55 | 2.96 |  |  |  |  |
| COc1cccc2c1O/C(=C\c1ccc([N+](=O)[O-])s1)C2=O | 2.02 | 4.72 | 1.48 | 7.16 | > 80.6 | > 100 | 1.25 | 2.92 |  |  |  |  |  |  |
| COC(=O)/C=C/c1cc(OC(C)=O)c2c(c1)C(C(=O)OC)C(c1ccc(OC(C)=O)c(OC(C)=O)c1)O2 (configuration not stated) | 0.617 | > 100 | 3.11 | > 76.8 | 3.68 | 23.2 | 0.442 | > 21.3 | 0.0219 | 0.0606 |  |  |  |  |
| O=C(O)c1ccc(CNCc2ccccc2)cc1 |  | > 100 |  | > 100 |  | > 100 |  | > 100 |  | > 100 |  |  |  |  |
| C=C(C)C(C1C=C(CCC(C=O)=C(C)C)C(=O)O1)C1(OC)C=C(C)C(=O)O1 (configuration not stated) |  |  | 25.8 | > 100 | > 100 | > 100 | > 100 | > 100 | > 100 | > 100 |  |  |  |  |
| CCOC(=O)Nc1c(C)nc2ccccn12 | > 100 | > 100 | > 100 | > 100 | > 100 | > 100 | > 100 | > 100 | > 100 | > 100 |  |  |  |  |
| O=[N+]([O-])c1ccccc1N=Nc1c(O)[nH]c2c(Cl)cc(Cl)cc12 |  | > 100 |  | > 100 |  | > 100 |  | > 69.3 |  | > 100 |  |  |  |  |
| C=C(C)[C@@H]1CC[C@]2(CN)CC[C@]3(C)[C@H](CC[C@@H]4[C@@]5(C)CCCNC(C)(C)[C@@H]5CC[C@]43C)[C@@H]12 |  |  | 1.88 | 3.81 | 1.88 | 3.8 | 1.79 | 3.52 | 1.6 | 2.98 |  |  |  |  |
| C=C(CN(C)Cc1ccccc1)c1ccc(NC(=O)c2ccc(C(=C)CN(C)Cc3ccccc3)cc2)cc1 | 39.3 | > 100 | 20.7 | 87.4 | 34.6 | > 100 | 54.9 | > 100 | > 100 | > 100 |  |  |  |  |
| O=C(CC(=O)Nc1ccccc1)NNC(Sc1ccccc1)c1cc(N=Nc2ccc(Br)cc2)ccc1O (configuration not stated) |  | 8.9 |  | > 10 |  | 5.04 |  | > 10 |  | > 10 |  |  |  |  |
| Cc1cc(C(=O)CSC(=S)SC(C)(C)C)ccc1Cl |  | 33.1 |  |  |  | 42.7 |  | 36.4 |  | 91.1 |  |  |  |  |
| C=CC12CCN(CC1)C(C(O)c1ccnc3ccc(OC)cc13)C2 (configuration not stated) | > 100 | > 100 | > 100 | > 100 | > 100 | > 100 | > 100 | > 100 | > 100 | > 100 |  |  |  |  |
